Assay results: patent US20230405057A1, “MEDICAL COMPOSITIONS AND THEIR USE IN TREATING INFLAMMATORY BOWEL DISEASE” (BIOMILLENIA SAS, priority 2019, published 2023)
“Also recorded” adds a separate entry of the source.

Columns and labels:
Format in all cases: cell-based
Malassezia furfur = assay: Disc diffusion growth inhibition assay (supernatants); conditions: 6 mm discs soaked with 15 ul supernatant or ketoconazole 1 mg/ml in DMSO; soft agar lawn; 5 days incubation
Description: (§1) FIG. 1|Inhibition assays of the fungicide ketoconazole as positive control for inhibition and Kazachstania unispora supernatant on M. sympodialis, M. furfur, M. restricts and M. globosa. Inhibition assays were performed using the disc diffusion method. Discs were soaked with ketoconazole (1 mg/ml) or K. unispora supernatant and placed on agar plates containing a soft layer inoculated with a single culture of the different Malassezia species to be tested.
(§2) In order to identify strains inhibiting Malassezia growth, inhibition assays were performed using the disc diffusion method. This method consists in disposing discs imbibed with potential inhibitory substances on Petri plates containing a strain of interest. After optimal growth of the strain of interest, growth inhibition can be observed around discs soaked with substances having an inhibitory effect. Potential inhibitory substances tested in this experiment are supernatants obtained after individually culturing a collection of fungal and bacterial strains. After an incubation of 10 days in their optimal broth, each culture was centrifuged and the supernatant was filtered and further stored at −20° C. Ketoconazole, a fungicide, was used as a positive control for Malassezia growth inhibition. It was diluted in dimethyl sulfoxide at 1 mg/ml. The collection of supernatants was tested on the following species from the genus Malassezia: Malassezia restricta, Malassezia globosa, Malassezia furfur and Malassezia sympodialis. All strains were streaked from −80° C. stock on Modified Leeming and Notman (MLN) agar plates and incubated 10 days at 30° C. A 5 ml liquid culture of each species was made in MLN broth and incubated at 30° C. for 2 days for M. furfur and M. sympodialis and 5 days for M. restricta and M. globosa. To allow a lawn growth of the different Malassezia strains tested, Petri plates were prepared as follows: a bottom layer of 50 ml Modified Sabouraud Dextrose (MSD) agar was poured in Petri plates. The soft agar, constituting the top layer, was a mix of 12.5 ml MSD agar, 10.5 ml MLN broth and 2 ml of liquid culture. Plates were allowed to dry for one hour, then, 6 mm-diameter Whatman™ discs were soaked with 15 ul of each thawed supernatants and ketoconazole and placed on the soft agar plate containing the solidified Malassezia monoculture layer. After an incubation of 5 days, inhibition area could be easily observed around discs. As expected, ketoconazole inhibited all 4 Malassezia species tested in this experiment. […] The strain from which the inhibitory supernatant has been produced was further sequenced using the Sanger technology. The internal transcribed spacer (ITS) of this strain was taxonomically assigned to the yeast Kazachstania unispora (BLASTn, 99% identity, 99% query cover, e-value 0.00).

Malassezia restricta [1] = assay: as above; conditions: 6 mm discs soaked with 15 ul supernatant or ketoconazole 1 mg/ml in DMSO; soft agar lawn; 5 days incubation
Description: as §1, §2

Malassezia sympodialis = assay: as above; conditions: 6 mm discs soaked with 15 ul supernatant or ketoconazole 1 mg/ml in DMSO; soft agar lawn; 5 days incubation
Description: as §1, §2

Malassezia globosa [2] = assay: as above; conditions: 6 mm discs soaked with 15 ul supernatant or ketoconazole 1 mg/ml in DMSO; soft agar lawn; 5 days incubation
Description: as §1, §2

Malassezia restricta [3] = assay: Modified disc diffusion assay with living Acetobacter culture; conditions: 6 mm discs soaked with 15 ul exponentially growing Acetobacter culture or ketoconazole 1 mg/mL in DMSO; 5 days incubation
Description: (§3) FIG. 1|Inhibition assays of M. restricts and M. globose by growth of Acetobacter fabarum. Discs were soaked with ketoconazole (1 mg/ml in DMSO) or exponentially growing Acetobacter fabarum culture and placed on agar plates containing a soft layer inoculated with a single culture of the different Malassezia species to be tested. In the upper panel, inhibition of Malassezia globosa is shown; in the bottom panel, Malassezia restricta is shown.
(§4) In order to identify strains whose growth inhibits Malassezia, inhibition assays were performed using a modified disc diffusion method. This method is similar to the classical disk diffusion method that consists in depositing discs imbibed with potential inhibitory substances on Petri plates containing a strain of interest, except that the disks were imbibed with a living culture of an Acetobacter strain. After optimal growth of the strain of interest, growth inhibition can be observed around discs on which the growth of inhibitory bacteria has occurred. Ketoconazole (at 1 mg/mL in DMSO) was used as a positive control for Malassezia growth inhibition. The effect of growth of Acetobacter was tested on Malassezia restricta and Malassezia globosa. All Malassezia strains were streaked from −80° C. stock on Modified Leeming and Notman (MLN) agar plates and incubated 10 days at 30° C. […]

Malassezia globosa [4] = assay: as above; conditions: 6 mm discs soaked with 15 ul exponentially growing Acetobacter culture or ketoconazole 1 mg/mL in DMSO; 5 days incubation
Description: as §3, §4

CC(=O)N1CCN(c2ccc(OCC3COC(Cn4ccnc4)(c4ccc(Cl)cc4Cl)O3)cc2)CC1 (stereo not drawn) [ketoconazole]
growth inhibition (inhibition halo around disc) of Malassezia furfur (Malassezia furfur): inhibits growth; also recorded: inhibited
growth inhibition (inhibition halo around disc) of Malassezia restricta (Malassezia restricta [1]): inhibits growth; also recorded: inhibited
growth inhibition (inhibition halo around disc) of Malassezia sympodialis (Malassezia sympodialis): inhibits growth; also recorded: inhibited
growth inhibition (inhibition halo around disc) of Malassezia globosa (Malassezia globosa [2]): inhibits growth; also recorded: inhibited
growth inhibition (inhibition halo around disc) of Malassezia restricta (Malassezia restricta [3]): inhibits growth; also recorded: inhibited
growth inhibition (inhibition halo around disc) of Malassezia globosa (Malassezia globosa [4]): inhibits growth; also recorded: inhibited
